Measured values taken from article PMC12748766, “Structural basis for human chondroitin sulfate chain polymerization” (Nature Communications, 2025).

Columns and labels:
CHSY1-CHPF complex = biological target: T1, CHSY1-CHPF complex (Homo sapiens, UniProt Q86X52); assay: FACE gel glycosylation assay; type: biochemical; details: acceptor TAMRA-labelled Penta-CSF1 glycopeptide, Mn2+ and Mg2+, pH 6.5, 30 C
T1 construct: secreted luminal part of both chains (TM helix removed), HEK Freestyle 293-F; N-terminal SUMO, His6 cut with 3C; C-terminal Avi (CHSY1), 3C site and twin-Strep (CHPF); heterodimer, expected 167 kDa; with Chondroitin sulfate synthase 2
T1 sequence (Q86X52 68-802): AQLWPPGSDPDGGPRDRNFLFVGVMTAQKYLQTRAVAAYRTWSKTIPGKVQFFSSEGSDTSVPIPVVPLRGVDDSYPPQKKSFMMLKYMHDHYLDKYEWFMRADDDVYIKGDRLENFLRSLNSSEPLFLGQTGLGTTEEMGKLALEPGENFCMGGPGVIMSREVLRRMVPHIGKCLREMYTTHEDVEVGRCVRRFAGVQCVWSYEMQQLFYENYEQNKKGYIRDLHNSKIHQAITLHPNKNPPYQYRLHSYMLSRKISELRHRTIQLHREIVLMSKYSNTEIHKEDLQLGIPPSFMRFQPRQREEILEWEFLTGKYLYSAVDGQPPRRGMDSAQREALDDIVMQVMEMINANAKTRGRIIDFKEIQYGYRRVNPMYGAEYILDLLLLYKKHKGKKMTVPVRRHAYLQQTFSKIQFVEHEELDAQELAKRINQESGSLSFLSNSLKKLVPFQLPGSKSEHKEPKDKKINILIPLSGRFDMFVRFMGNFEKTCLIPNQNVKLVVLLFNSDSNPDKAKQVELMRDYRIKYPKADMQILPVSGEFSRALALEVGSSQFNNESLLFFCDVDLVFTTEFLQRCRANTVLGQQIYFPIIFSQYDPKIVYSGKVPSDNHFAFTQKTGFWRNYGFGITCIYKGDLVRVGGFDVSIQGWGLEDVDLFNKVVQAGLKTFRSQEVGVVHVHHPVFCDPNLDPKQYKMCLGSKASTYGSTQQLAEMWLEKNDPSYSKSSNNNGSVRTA
T1 sequence (Q8IZ52 81-775 partner): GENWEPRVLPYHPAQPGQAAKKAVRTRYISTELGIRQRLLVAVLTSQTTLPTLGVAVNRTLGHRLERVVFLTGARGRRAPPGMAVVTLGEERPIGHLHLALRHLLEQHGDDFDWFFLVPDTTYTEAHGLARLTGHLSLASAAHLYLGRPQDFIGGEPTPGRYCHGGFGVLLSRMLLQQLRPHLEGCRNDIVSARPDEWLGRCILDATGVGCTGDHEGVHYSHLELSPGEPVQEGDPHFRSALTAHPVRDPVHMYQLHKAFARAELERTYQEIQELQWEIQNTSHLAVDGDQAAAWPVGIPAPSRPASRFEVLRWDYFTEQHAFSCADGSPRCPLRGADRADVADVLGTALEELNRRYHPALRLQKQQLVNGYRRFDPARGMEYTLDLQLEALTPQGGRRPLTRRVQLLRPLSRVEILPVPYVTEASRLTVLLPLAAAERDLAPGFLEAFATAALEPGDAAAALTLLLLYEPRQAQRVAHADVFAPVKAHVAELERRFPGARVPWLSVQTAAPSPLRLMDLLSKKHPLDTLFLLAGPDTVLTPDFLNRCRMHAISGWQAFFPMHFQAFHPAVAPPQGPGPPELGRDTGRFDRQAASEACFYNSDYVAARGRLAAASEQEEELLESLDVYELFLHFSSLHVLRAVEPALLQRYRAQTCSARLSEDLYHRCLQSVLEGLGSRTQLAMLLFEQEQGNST

CHSY1-CHPF2 complex = biological target: T2, CHSY1-CHPF2 complex (Homo sapiens, UniProt Q86X52); assay: FACE gel glycosylation assay; type: biochemical; details: acceptor TAMRA-labelled Penta-CSF1 glycopeptide, Mn2+ and Mg2+, pH 6.5, 30 C
T2 construct: secreted luminal part of both chains (TM helix removed), HEK Freestyle 293-F; N-terminal SUMO, His6 cut with 3C; C-terminal Avi (CHSY1), 3C site and twin-Strep (CHPF2); heterodimer, expected 169 kDa; with Chondroitin sulfate glucuronyltransferase
T2 sequence (Q86X52 68-802): T1 sequence (Q86X52 68-802)
T2 sequence (Q9P2E5 57-772 partner): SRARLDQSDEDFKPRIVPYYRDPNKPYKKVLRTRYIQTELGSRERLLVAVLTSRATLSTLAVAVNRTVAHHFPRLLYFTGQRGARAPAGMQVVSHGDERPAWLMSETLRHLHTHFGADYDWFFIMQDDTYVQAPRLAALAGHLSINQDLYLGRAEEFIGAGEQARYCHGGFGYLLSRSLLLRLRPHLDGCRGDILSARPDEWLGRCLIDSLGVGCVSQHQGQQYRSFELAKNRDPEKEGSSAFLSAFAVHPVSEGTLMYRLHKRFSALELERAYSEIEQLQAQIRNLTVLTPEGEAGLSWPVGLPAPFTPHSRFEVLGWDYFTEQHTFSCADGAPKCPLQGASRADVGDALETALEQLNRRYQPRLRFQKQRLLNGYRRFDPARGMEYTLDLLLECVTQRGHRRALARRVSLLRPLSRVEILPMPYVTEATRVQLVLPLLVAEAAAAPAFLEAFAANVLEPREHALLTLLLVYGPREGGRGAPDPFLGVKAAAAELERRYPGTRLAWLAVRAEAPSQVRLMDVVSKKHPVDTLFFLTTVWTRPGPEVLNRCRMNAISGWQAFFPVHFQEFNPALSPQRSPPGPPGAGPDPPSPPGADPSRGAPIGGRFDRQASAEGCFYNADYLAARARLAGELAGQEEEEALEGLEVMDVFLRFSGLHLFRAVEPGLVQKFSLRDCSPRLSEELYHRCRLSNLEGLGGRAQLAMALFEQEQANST

CHSY3-CHPF complex [1] = biological target: T3, CHSY3-CHPF complex (Homo sapiens, UniProt Q70JA7); assay: FACE gel glycosylation assay; type: biochemical; details: Mn2+ and Mg2+, pH 6.5, 30 C
T3 construct: secreted luminal part of both chains (TM helix removed), HEK Freestyle 293-F; N-terminal RPTP sigma signal, SUMO, His6 cut with 3C; C-terminal Avi (CHSY3), 3C site and twin-Strep (CHPF); heterodimer, expected 165 kDa; with Chondroitin sulfate synthase 2
T3 sequence (Q70JA7 157-882): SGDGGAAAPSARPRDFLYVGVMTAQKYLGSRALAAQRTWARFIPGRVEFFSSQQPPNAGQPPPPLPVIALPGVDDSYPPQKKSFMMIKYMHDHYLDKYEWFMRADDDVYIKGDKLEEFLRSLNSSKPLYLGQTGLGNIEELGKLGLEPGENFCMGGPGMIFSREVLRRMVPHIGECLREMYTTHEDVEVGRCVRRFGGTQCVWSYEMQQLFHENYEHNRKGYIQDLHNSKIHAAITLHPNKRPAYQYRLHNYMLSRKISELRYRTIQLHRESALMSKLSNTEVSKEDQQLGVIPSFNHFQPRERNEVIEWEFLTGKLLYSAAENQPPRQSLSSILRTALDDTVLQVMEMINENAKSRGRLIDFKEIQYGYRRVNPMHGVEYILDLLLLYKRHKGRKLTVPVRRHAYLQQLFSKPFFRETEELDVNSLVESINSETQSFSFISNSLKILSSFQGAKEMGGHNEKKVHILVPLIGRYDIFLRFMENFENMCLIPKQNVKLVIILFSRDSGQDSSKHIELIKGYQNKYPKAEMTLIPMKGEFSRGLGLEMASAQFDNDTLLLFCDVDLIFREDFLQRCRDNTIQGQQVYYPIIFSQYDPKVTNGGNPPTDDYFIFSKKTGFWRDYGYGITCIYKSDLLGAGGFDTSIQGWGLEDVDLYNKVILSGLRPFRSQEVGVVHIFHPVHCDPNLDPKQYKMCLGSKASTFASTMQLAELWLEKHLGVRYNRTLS
T3 sequence (Q8IZ52 81-775 partner): T1 sequence (Q8IZ52 81-775 partner)

CHSY3-CHPF2 complex = biological target: T4, CHSY3-CHPF2 complex (Homo sapiens, UniProt Q70JA7); assay: FACE gel glycosylation assay; type: biochemical; details: acceptor TAMRA-labelled Penta-CSF1 glycopeptide, Mn2+ and Mg2+, pH 6.5, 30 C
T4 construct: secreted luminal part of both chains (TM helix removed), HEK Freestyle 293-F; N-terminal SUMO, His6 cut with 3C; C-terminal Avi (CHSY3), 3C site and twin-Strep (CHPF2); heterodimer, expected 167 kDa; with Chondroitin sulfate glucuronyltransferase
T4 sequence (Q70JA7 157-882): T3 sequence (Q70JA7 157-882)
T4 sequence (Q9P2E5 57-772 partner): T2 sequence (Q9P2E5 57-772 partner)

CHSY3-CHPF complex [2] = biological target: T3, CHSY3-CHPF complex; assay: cryo-EM structure, […] A; type: binding; details: 10 mM UDP, Mn2+, pH 6.5; bound in N-terminal GT31 (GlcA-T) active site of CHSY3
[3] = biological target: T5, Chondroitin Sulfate Synthase-1 (CHSY1), secreted N-terminally truncated construct aa68-aa802 (human, UniProt Q86X52 68-802); assay: mass photometry; Refeyn OneMP; purified complexes diluted in 20 mM MES pH 6.5, 150 mM NaCl to around 25 nM; details: both partners purified
T5 construct: CHSY1, human, UniProt Q86X52, residues 68-802 (membrane-spanning helix removed); Construct in pHR-CMV-TetO2 with an N-terminal chicken RPTP sigma signal peptide, SUMO, 6x His and a 3C site; no cleavage site before the C-terminal Avi tag; source: Freestyle 293-F cells, co-transfected, secreted; purified from the supernatant (HisTrap, 3C protease, second HisTrap); not shown: SUMO, N-terminal, …
T5 sequence (looked up): T1 sequence (Q86X52 68-802)

[4] = biological target: T6, Chondroitin Sulfate Synthase-3 (CHSY3), secreted N-terminally truncated construct aa157-aa882 (human, UniProt Q70JA7 157-882); assay: as above; details: both partners purified
T6 construct: CHSY3, human, UniProt Q70JA7, residues 157-882 (membrane-spanning helix removed); Construct in pHR-CMV-TetO2 with an N-terminal chicken RPTP sigma signal peptide, SUMO, 6x His and a 3C site; no cleavage site before the C-terminal Avi tag; source: Freestyle 293-F cells, co-transfected, secreted; purified from the supernatant (HisTrap, 3C protease, second HisTrap); not shown: SUMO, N-terminal, …
T6 sequence (looked up): T3 sequence (Q70JA7 157-882)

O=C(O)[C@H]1O[C@H](OP(=O)(O)OP(=O)(O)OC[C@H]2O[C@@H](n3ccc(=O)[nH]c3=O)[C@H](O)[C@@H]2O)[C@H](O)[C@@H](O)[C@@H]1O [UDP-GlcA]
FACE gel glycosylation assay (CHSY1-CHPF complex; co-donor UDP-GalNAc): All four purified CS polymerase complexes were able to elongate the CS chain
FACE gel glycosylation assay (CHSY1-CHPF2 complex; co-donor UDP-GalNAc): All four purified CS polymerase complexes were able to elongate the CS chain
FACE gel glycosylation assay (CHSY3-CHPF complex [1]; acceptor TAMRA-labelled Penta-CSF1 glycopeptide, co-donor UDP-GalNAc, N-terminal GT31 site of CHSY3): wild-type CHSY3-CHPF complex efficiently elongated the Penta-CSF1 and Hexa-CSF1 substrates into high molecular weight chains
FACE gel glycosylation assay (CHSY3-CHPF2 complex; co-donor UDP-GalNAc): All four purified CS polymerase complexes were able to elongate the CS chain

O=c1ccn([C@@H]2O[C@H](COP(=O)(O)OP(=O)(O)O)[C@@H](O)[C@H]2O)c(=O)[nH]1 [UDP]
cryo-EM structure, 3.0 A (CHSY3-CHPF complex [2]): We identified one UDP molecule bound in the CHSY3 GlcA-T active site.

CC(=O)N[C@H]1[C@@H](OP(=O)(O)OP(=O)(O)OC[C@H]2O[C@@H](n3ccc(=O)[nH]c3=O)[C@H](O)[C@@H]2O)O[C@H](CO)[C@H](O)[C@@H]1O [UDP-GalNAc]
FACE gel glycosylation assay (CHSY1-CHPF complex; co-donor UDP-GlcA): All four purified CS polymerase complexes were able to elongate the CS chain
FACE gel glycosylation assay (CHSY1-CHPF2 complex; co-donor UDP-GlcA): All four purified CS polymerase complexes were able to elongate the CS chain
FACE gel glycosylation assay (CHSY3-CHPF complex [1]; acceptor TAMRA-labelled Hexa-CSF1 glycopeptide, co-donor UDP-GlcA, C-terminal GT7 site of CHSY3): wild-type CHSY3-CHPF complex efficiently elongated the Penta-CSF1 and Hexa-CSF1 substrates into high molecular weight chains
FACE gel glycosylation assay (CHSY3-CHPF2 complex; co-donor UDP-GlcA): All four purified CS polymerase complexes were able to elongate the CS chain

B1: Chondroitin Polymerization Factor-2 (CHPF2), secreted N-terminally truncated construct aa57-aa772 (domain or fragment, human, UniProt Q9P2E5 57-772, looked up)
chain: T2 sequence (Q9P2E5 57-772 partner)
notes: CHPF2, human, UniProt Q9P2E5, residues 57-772 (membrane-spanning helix removed); Construct in pHR-CMV-TetO2 with an N-terminal chicken RPTP sigma signal peptide, SUMO, 6x His and a 3C site; a second 3C site stands before the C-terminal twin streptavidin tag; also called CSGlcA-T; source: Freestyle 293-F cells, co-transfected, secreted; purified from the supernatant (HisTrap, 3C protease, second …)
binding result [3]: binds
binding result [4]: binds
